# From patent publication US9604996B2 (Bayer Pharma Aktiengesellschaft, priority 2013, dated 2017)
# Biological target: T1, human adenosine A2b receptor (Homo sapiens, UniProt P29275)
# T1 construct: expressed in transfected cells; host or cells: CHO-K1 (Chinese Hamster Ovary) with CRE-luciferase reporter
# T1 sequence (P29275 1-332): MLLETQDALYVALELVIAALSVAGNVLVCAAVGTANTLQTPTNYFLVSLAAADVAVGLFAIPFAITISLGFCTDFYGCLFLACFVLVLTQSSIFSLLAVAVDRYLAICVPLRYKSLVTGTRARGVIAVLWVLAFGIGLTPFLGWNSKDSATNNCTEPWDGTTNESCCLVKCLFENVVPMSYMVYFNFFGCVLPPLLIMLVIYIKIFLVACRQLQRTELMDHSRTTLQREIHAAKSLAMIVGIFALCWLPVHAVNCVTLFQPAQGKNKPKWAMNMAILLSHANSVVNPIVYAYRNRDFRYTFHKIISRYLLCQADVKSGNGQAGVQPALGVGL
# Assay: Cellular reporter gene (CRE-luciferase) A2b receptor antagonist assay in recombinant CHO-K1 cells stimulated with NECA
# Format: cell-based
# Details: recombinant CHO-K1 cell line, co-incubation with EC50 concentration of NECA, 3 hours, in some cases means, rounded to two significant digits
# Experimental: B-1. Cellular In Vitro Tests for Determining A2b Receptor Activity and Adenosine Receptor Selectivity
# The identification of selective antagonists of the human adenosine A2b receptor and the quantification of the efficacy and selectivity of the compounds according to the invention was carried out with the aid of recombinant cell lines for the human adenosine receptors A1, A2a, A2b and A3. These cell lines were originally derived from an ovarepithelial cell of the hamster (Chinese Hamster Ovary, CHO-K1, American Type Culture Collection, Manassas, Va. 20108, USA). In addition to the respective recombinantly expressed adenosine receptor for testing the efficacy at the A1, A2a and A2b receptors, the cell lines contain a reporter gene construct where expression of the firefly (Photinus pyralis) luciferase is under the control of a promoter which can be activated via intracellular signal cascades by stimulation of the receptors with the (not subtype-selective) adenosine receptor agonist NECA (5′-N-ethylcarboxamidoadenosine) [S. J. Hill, J. G. Baker, S. Rhees, Curr. Opin. Pharmacol. 1, 526-532 (2001)].
# In the case of the A2a and A2b cell lines, this is a minimal promoter having a plurality of cAMP-responsive elements (CRE). Stimulation of the Gs coupled A2b or A2a receptors by NECA ultimately leads, via formation of cAMP, to CRE-dependent induction of luciferase expression, which is detected 3 hours after the start of the incubation with NECA using a detection solution in a suitable luminometer. For testing the antagonists, initially, in a pre-experiment, the concentration of NECA which, at the test day in question, results in half-maximum stimulation of luciferase expression (EC50 concentration) is determined By joint incubation of this EC50 concentration of NECA with the substances to be tested, it is possible to determine their antagonistic activity.
row,SMILES,IC50
1,"COC(Cn1c(=O)c2c(C)c(C(=O)N3CCC(O)(CO)CC3)sc2n(CCC(F)(F)F)c1=O)C(F)(F)F (single isomer, unassigned) [Example 115, 6-{[4-Hydroxy-4-(hydroxymethyl)piperidin-1-yl]carbonyl}-5-methyl-3-(3,3,3-trifluoro-2-methoxypropyl)-1-(3,3,3-trifluoropropyl)thieno[2,3-d]pyrimidine-2,4(1H,3H)-dione]",610 nM
2,"CCn1c(=O)c2c(C)c(C(=O)N3CCC(O)C(O)C3)sc2n(CCC(F)(F)F)c1=O (single isomer, unassigned) [Example 117, 6-[(3,4-Dihydroxypiperidin-1-yl)carbonyl]-3-ethyl-5-methyl-1-(3,3,3-trifluoropropyl)thieno [2,3-d]pyrimidine-2,4(1H,3H)-dione]",140 nM
3,"CCn1c(=O)c2c(C)c(C(=O)N3CCC(O)C(O)C3)sc2n(CCC(F)(F)F)c1=O (single isomer, unassigned) [Example 118, 6-[(3,4-Dihydroxypiperidin-1-yl)carbonyl]-3-ethyl-5-methyl-1-(3,3,3-trifluoropropyl)thieno [2,3-d]pyrimidine-2,4(1H,3H)-dione]",200 nM
4,"CCn1c(=O)c2c(C)c(C(=O)N3CCC(O)C(O)C3)sc2n(CCC(F)(F)F)c1=O (single isomer, unassigned) [Example 120, 6-[(3,4-Dihydroxypiperidin-1-yl)carbonyl]-3-ethyl-5-methyl-1-(3,3,3-trifluoropropyl)thieno [2,3-d]pyrimidine-2,4(1H,3H)-dione]",130 nM
5,"CCn1c(=O)c2c(C)c(C(=O)N3CCC(O)C(O)C3)sc2n(CCC(F)(F)F)c1=O (single isomer, unassigned) [Example 121, 6-[(3,4-Dihydroxypiperidin-1-yl)carbonyl]-3-ethyl-5-methyl-1-(3,3,3-trifluoropropyl)thieno [2,3-d]pyrimidine-2,4(1H,3H)-dione]",180 nM
6,"CCn1c(=O)c2c(C(C)F)c(C(=O)N3CCNC(=O)C3)sc2n(CCC(F)(F)F)c1=O (single isomer, unassigned) [Example 148, 3-Ethyl-5-(1-fluoroethyl)-6-[(3-oxopiperazin-1-yl)carbonyl]-1-(3,3,3-trifluoropropyl)thieno[2,3-d]pyrimidine-2,4(1H,3H)-dione]",240 nM
7,"CCn1c(=O)c2c(C(C)F)c(C(=O)N3CCNC(=O)C3)sc2n(CCC(F)(F)F)c1=O (single isomer, unassigned) [Example 149, 3-Ethyl-5-(1-fluoroethyl)-6-[(3-oxopiperazin-1-yl)carbonyl]-1-(3,3,3-trifluoropropyl)thieno[2,3-d]pyrimidine-2,4(1H,3H)-dione]",320 nM
8,"COC(Cn1c(=O)c2c(C)c(C(=O)N3CCC(O)CC3)sc2n(CCC(F)(F)F)c1=O)c1ccccc1 (single isomer, unassigned; enantiomer 1) [Example 48, 6-[(4-Hydroxypiperidin-1-yl)carbonyl]-3-(2-methoxy-2-phenylethyl)-5-methyl-1-(3,3,3-trifluoropropyl)thieno[2,3-d]pyrimidine-2,4(1H,3H)-dione (enantiomer 1)]",59 nM
9,"COCCn1c(=O)n(CCc2ccccc2)c(=O)c2c(C)c(C(=O)N3CCC(O)CC3)sc21 [Example 3, 6-[(4-Hydroxypiperidin-1-yl)carbonyl]-1-(2-methoxyethyl)-5-methyl-3-(2-phenylethyl)thieno [2,3-d]pyrimidine-2,4(1H,3H)-dione]",290 nM
10,"Cc1c(C(=O)N2CCC(O)CC2)sc2c1c(=O)n(CCc1ccccc1F)c(=O)n2CCC=C(F)F [Example 5, 1-(4,4-Difluorobut-3-en-1-yl)-3-[2-(2-fluorophenyl)ethyl]-6-[(4-hydroxypiperidin-1-yl)carbonyl]-5-methylthieno[2,3-d]pyrimidine-2,4(1H,3H)-dione]",52 nM
11,"Cc1c(C(=O)N2CCC(O)CC2)sc2c1c(=O)n(CCc1ccccc1Cl)c(=O)n2CCC=C(F)F [Example 7, 3-[2-(2-Chlorophenyl)ethyl]-1-(4,4-difluorobut-3-en-1-yl)-6-[(4-hydroxypiperidin-1-yl)carbonyl]-5-methylthieno[2,3-d]pyrimidine-2,4(1H,3H)-dione]",110 nM

# Results, then the compound that gave them:
row,IC50,SMILES
1,24 nM,"Cc1c(C(=O)N2CCC(O)CC2)sc2c1c(=O)n(CC(C)(O)c1ccccc1)c(=O)n2CCC(F)(F)F (single isomer, unassigned) [Example 132, 3-(2-Hydroxy-2-phenylpropyl)-6-[(4-hydroxypiperidin-1-yl)carbonyl]-5-methyl-1-(3,3,3-trifluoropropyl)thieno[2,3-d]pyrimidine-2,4(1H,3H)-dione]"
2,850 nM,"Cc1c(C(=O)N2CCC(O)CC2)sc2c1c(=O)n(CC(C)(O)c1ccccc1)c(=O)n2CCC(F)(F)F (single isomer, unassigned) [Example 133, 3-(2-Hydroxy-2-phenylpropyl)-6-[(4-hydroxypiperidin-1-yl)carbonyl]-5-methyl-1-(3,3,3-trifluoropropyl)thieno[2,3-d]pyrimidine-2,4(1H,3H)-dione]"
3,4.6 nM,"Cc1c(C(=O)N2CCC(O)CC2)sc2c1c(=O)n(CC(C)c1ccccc1)c(=O)n2CCC(F)(F)F (single isomer, unassigned; enantiomer 1) [Example 44, 6-[(4-Hydroxypiperidin-1-yl)carbonyl]-5-methyl-3-(2-phenylpropyl)-1-(3,3,3-trifluoropropyl)thieno[2,3-d]pyrimidine-2,4(1H,3H)-dione (enantiomer 1)]"
4,150 nM,"Cc1c(C(=O)N2CCC(O)CC2)sc2c1c(=O)n(CC(C)c1ccccc1)c(=O)n2CCC(F)(F)F (single isomer, unassigned; enantiomer 2) [Example 45, 6-[(4-Hydroxypiperidin-1-yl)carbonyl]-5-methyl-3-(2-phenylpropyl)-1-(3,3,3-trifluoropropyl)thieno[2,3-d]pyrimidine-2,4(1H,3H)-dione (enantiomer 2)]"
5,4.4 nM,"COC(Cn1c(=O)c2c(C)c(C(=O)N3CCC(O)CC3)sc2n(CCC(F)(F)F)c1=O)c1ccccc1 (single isomer, unassigned; enantiomer 2) [Example 47, 6-[(4-Hydroxypiperidin-1-yl)carbonyl]-3-(2-methoxy-2-phenylethyl)-5-methyl-1-(3,3,3-trifluoropropyl)thieno[2,3-d]pyrimidine-2,4(1H,3H)-dione (enantiomer 2)]"
6,52 nM,"Cc1c(C(=O)N2CCC(O)CC2)sc2c1c(=O)n(CCc1cccc(F)c1)c(=O)n2CCC(F)(F)F [Example 9, 3-[2-(3-Fluorophenyl)ethyl]-6-[(4-hydroxypiperidin-1-yl)carbonyl]-5-methyl-1-(3,3,3-trifluoropropyl)thieno[2,3-d]pyrimidine-2,4(1H,3H)-dione]"
7,310 nM,"Cc1c(C(=O)N2CCC(O)CC2)sc2c1c(=O)n(CCc1cccc(Cl)c1)c(=O)n2CCC(F)(F)F [Example 10, 3-[2-(3-Chlorophenyl)ethyl]-6-[(4-hydroxypiperidin-1-yl)carbonyl]-5-methyl-1-(3,3,3-trifluoropropyl)thieno[2,3-d]pyrimidine-2,4(1H,3H)-dione]"
8,510 nM,"Cc1cccc(CCn2c(=O)c3c(C)c(C(=O)N4CCC(O)CC4)sc3n(CCC(F)(F)F)c2=O)c1 [Example 11, 6-[(4-Hydroxypiperidin-1-yl)carbonyl]-5-methyl-3-[2-(3-methylphenyl)ethyl]-1-(3,3,3-trifluoropropyl)thieno[2,3-d]pyrimidine-2,4(1H,3H)-dione]"
9,65 nM,"Cc1c(C(=O)N2CCC(O)CC2)sc2c1c(=O)n(CCc1ccc(F)cc1)c(=O)n2CCC(F)(F)F [Example 12, 3-[2-(4-Fluorophenyl)ethyl]-6-[(4-hydroxypiperidin-1-yl)carbonyl]-5-methyl-1-(3,3,3-trifluoropropyl)thieno[2,3-d]pyrimidine-2,4(1H,3H)-dione]"
10,100 nM,"Cc1c(C(=O)N2CCC(O)CC2)sc2c1c(=O)n(CCc1ccc(Cl)cc1)c(=O)n2CCC(F)(F)F [Example 13, 3-[2-(4-Chlorophenyl)ethyl]-6-[(4-hydroxypiperidin-1-yl)carbonyl]-5-methyl-1-(3,3,3-trifluoropropyl)thieno [2,3-d]pyrimidine-2,4(1H,3H)-dione]"
11,190 nM,"COc1ccc(CCn2c(=O)c3c(C)c(C(=O)N4CCC(O)CC4)sc3n(CCC(F)(F)F)c2=O)cc1 [Example 14, 6-[(4-Hydroxypiperidin-1-yl)carbonyl]-3-[2-(4-methoxyphenyl)ethyl]-5-methyl-1-(3,3,3-trifluoropropyl)thieno [2,3-d]pyrimidine-2,4(1H,3H)-dione]"
